Experimental data published in patent US12344610B2, “APOL1 inhibitors and methods of use” (Maze Therapeutics, Inc., priority 2022, dated 2025).

Tested on: human immortalized podocytes inducibly expressing APOL1 G2
Assay: APOL1 G2 podocyte cell rescue assay (Example B4)
Assay type: cell-based
Conditions: Homo sapiens, differentiated human podocytes, doxycycline-induced APOL1 G2, CellTiter-Glo; geometric mean of at least 2 runs; † = single run
Outline: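 Differentiated hTERT-immortalized podocytes (clone D10) with doxycycline-inducible C-terminally HiBiT-tagged APOL1 G2, 6,000 cells/well, treated with doxycycline plus 8-point 3-fold compound series (0.4% DMSO) for 95 h at 37 °C. Viability by CellTiter-Glo luminescence; EC50 as geometric mean of ≥2 runs, each in duplicate.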

SMILES	EC50 [nM]
CS(=O)(=O)C1(c2ncc(OCCN3CCC4(CC3)C(=O)Nc3ccc(C(F)F)cc34)cn2)CC1 [Compound 5, 5-(difluoromethyl)-1′-(2-{[2-(1-methanesulfonylcyclopropyl)pyrimidin-5-yl]oxy}ethyl)-1,2-dihydrospiro[indole-3,4′-piperidin]-2-one]	> 330
CS(=O)(=O)C1(c2ncc(OCCN3CCC4(CC3)C(=O)Nc3ccc(OC(F)F)cc34)cn2)CC1 [Compound 6, 5-(difluoromethoxy)-1′-(2-{[2-(1-methanesulfonylcyclopropyl)pyrimidin-5-yl]oxy}ethyl)-1,2-dihydrospiro[indole-3,4′-piperidin]-2-one]	47.7
O=C1CCc2cc(OCCN3CCC4(CC3)C(=O)Nc3ccc(Cl)cc34)cnc2N1[C@H]1C[C@H](O)C1 [Compound 267, 5-chloro-1′-[2-({7-oxo-8-[(trans)-3-hydroxycyclobutyl]-5,6,7,8-tetrahydro-1,8-naphthyridin-3-yl}oxy)ethyl]-1,2-dihydrospiro[indole-3,4′-piperidin]-2-one]	6.63
C[C@]1(O)C[C@@H](n2c(=O)cnc3cc(OCCN4CCC5(CC4)C(=O)Nc4ccc(Cl)cc45)cnc32)C1 [Compound 358, 5-chloro-1′-[2-({3-oxo-4-[(cis)-3-hydroxy-3-methylcyclobutyl]-3H,4H-pyrido[2,3-b]pyrazin-7-yl}oxy)ethyl]-1,2-dihydrospiro[indole-3,4′-piperidin]-2-one]	24
CC1(O)CN(c2ncc(OCCN3CCC4(CC3)C(=O)Nc3ccc(C(F)F)cc34)cn2)C1 [Compound 395, 5-(difluoromethyl)-1′-(2-{[2-(3-hydroxy-3-methylazetidin-1-yl)pyrimidin-5-yl]oxy}ethyl)-1,2-dihydrospiro[indole-3,4′-piperidin]-2-one]	137

Same assay, conditions: differentiated human podocytes, doxycycline-induced APOL1 G2, CellTiter-Glo; geometric mean of at least 2 runs; † = single run

SMILES	EC50 [nM]
CC(c1ncc(OCCN2CCC3(CC2)C(=O)Nc2ccc(Cl)cc23)cn1)S(C)(=O)=O (single isomer, unassigned) [Compound 2, 5-chloro-1′-[2-({2-[(1S) or (1R)-1-methanesulfonylethyl]pyrimidin-5-yl}oxy)ethyl]-1,2-dihydrospiro[indole-3,4′-piperidin]-2-one]	10.7
CC(c1ncc(OCCN2CCC3(CC2)C(=O)Nc2ccc(Cl)cc23)cn1)S(C)(=O)=O (single isomer, unassigned) [Compound 3, 5-chloro-1′-[2-({2-[(1R) or (1S)-1-methanesulfonylethyl]pyrimidin-5-yl}oxy)ethyl]-1,2-dihydrospiro[indole-3,4′-piperidin]-2-one]	23.5
CC(O)c1ncc(OCCN2CCC3(CC2)C(=O)Nc2ccc(C#N)cc23)cc1C(F)(F)F (single isomer, unassigned) [Compound 376, 1′-[2-({6-[(1S) or (1R)-1-hydroxyethyl]-5-(trifluoromethyl)pyridin-3-yl}oxy)ethyl]-2-oxo-1,2-dihydrospiro[indole-3,4′-piperidine]-5-carbonitrile]	6.21
CC(O)c1ncc(OCCN2CCC3(CC2)C(=O)Nc2ccc(C#N)cc23)cc1C(F)(F)F (single isomer, unassigned) [Compound 377, 1′-[2-({6-(1S) or (1R)-1-hydroxyethyl]-5-(trifluoromethyl)pyridin-3-yl}oxy)ethyl]-2-oxo-1,2-dihydrospiro[indole-3,4′-piperidine]-5-carbonitrile]	24.4
CS(=O)(=O)C1(c2ccc(OCCN3CCC4(CC3)C(=O)Nc3ccc(Cl)cc34)cc2)CC(O)C1 (stereo not drawn) [Compound 269, 5-chloro-1′-(2-{4-[(cis) or (trans)-3-hydroxy-1-methanesulfonylcyclobutyl]phenoxy}ethyl)-1,2-dihydrospiro[indole-3,4′-piperidin]-2-one]	30.4
CS(=O)(=O)C1(c2ccc(OCCN3CCC4(CC3)C(=O)Nc3ccc(Cl)cc34)cc2)CC(O)C1 (stereo not drawn) [Compound 270, 5-chloro-1′-(2-{4-[(trans) or (cis)-3-hydroxy-1-methanesulfonylcyclobutyl]phenoxy}ethyl)-1,2-dihydrospiro[indole-3,4′-piperidin]-2-one]	2.92
